In PubChem BioAssay AID652222 (The Scripps Research Institute Molecular Screening Center, 2013):

molecular target: Serine/threonine-protein phosphatase PP1-alpha catalytic subunit (Homo sapiens) (UniProt P62136); test: PP1 inhibitor potency with OMFP substrate, dose response, biochemical, fluorescence, set 1 (AID 652222); conditions: purified PP1alpha, OMFP dephosphorylation
Sequence (P62136 whole entry, looked up): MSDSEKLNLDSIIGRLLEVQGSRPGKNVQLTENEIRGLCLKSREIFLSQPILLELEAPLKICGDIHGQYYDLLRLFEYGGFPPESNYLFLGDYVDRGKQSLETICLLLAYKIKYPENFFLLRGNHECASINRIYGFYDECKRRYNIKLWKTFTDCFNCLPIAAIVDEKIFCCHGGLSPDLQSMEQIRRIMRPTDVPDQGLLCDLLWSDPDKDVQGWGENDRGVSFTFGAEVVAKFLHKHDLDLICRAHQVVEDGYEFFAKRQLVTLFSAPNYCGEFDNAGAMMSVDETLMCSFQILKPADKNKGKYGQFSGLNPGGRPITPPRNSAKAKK

SMILES | IC50
Oc1c(C(c2ccccn2)N2CCCC2)ccc2cccnc12 (stereo not drawn) | 1410 nM
Cc1cccc(C(c2ccc3cccnc3c2O)N2CCN(C)CC2)n1 (stereo not drawn) | 2520 nM
COc1ccnc(C(c2ccc3cccnc3c2O)N2CCN(C)CC2)c1 (stereo not drawn) | 1260 nM
COc1cccc(C(c2ccc3cccnc3c2O)N2CCN(C)CC2)n1 (stereo not drawn) | 8870 nM
Cc1ccc(C(c2ccc3cccnc3c2O)N2CCN(C)CC2)nc1 (stereo not drawn) | 1340 nM
Cc1ccc2ccc(C(c3ccccn3)N3CCN(C)CC3)c(O)c2n1 (stereo not drawn) | 1440 nM
Cc1ccnc(C(c2ccc3cccnc3c2O)N2CCN(C)CC2)c1 (stereo not drawn) | 1800 nM
CC1CCN(C(c2ccccn2)c2cc(Cl)c3cccnc3c2O)CC1 (stereo not drawn) | 1450 nM
CC(C)(C)OC(=O)N1CCN(C(c2ccccn2)c2cc(Cl)c3cccnc3c2O)CC1 (stereo not drawn) | 1370 nM
Oc1c(C(c2ccccn2)N2CCC(Cc3ccccc3)CC2)cc(Cl)c2cccnc12 (stereo not drawn) | 1230 nM
COc1ccc(C(c2ccc3cccnc3c2O)N2CCN(C)CC2)nc1 (stereo not drawn) | 1690 nM
CN1CCN(C(c2ccc(C(F)(F)F)cn2)c2ccc3cccnc3c2O)CC1 (stereo not drawn) | 836 nM
CN1CCN(C(c2ccc3cccnc3c2O)c2ncccc2C(F)(F)F)CC1 (stereo not drawn) | 1120 nM
CN1CCN(C(c2ncccn2)c2ccc3cccnc3c2O)CC1 (stereo not drawn) | 2690 nM
CN1CCC(NC(c2ccccn2)c2ccc3cccnc3c2O)CC1 (stereo not drawn) | 2500 nM
Oc1c(C(c2ccccn2)N2CCN(c3ccccc3F)CC2)cc(Cl)c2cccnc12 (stereo not drawn) | 2410 nM
Oc1c(C(NC2CCCCC2)c2ccccn2)ccc2cccnc12 (stereo not drawn) | 1360 nM
Cc1cccnc1C(c1ccc2cccnc2c1O)N1CCN(C)CC1 (stereo not drawn) | 1480 nM
